In patent publication US8900444B2, “Switchable hydrophilicity solvents and methods of use thereof” (Queen's University at Kingston, priority 2009, dated 2014):

What was measured:
Assay type in all cases: physicochemical
[1] = Quantitative switching study of BA by 1H NMR (Example 1D)
Method: A methanol-d4 solution was prepared containing a sodium acetate internal standard (48.8 mM).
Two 4 mL glass vials containing 1.0 mL D2O and 0.5 mL BA were prepared and shaken. A 50 μL sample was withdrawn from each layer of one vial and combined with 0.50 mL of the sodium acetate standard solution in each of two NMR tubes: the top layer (BA) in a first tube; the bottom layer (aqueous) in a second tube.
Carbon dioxide was bubbled through the unsampled vial until the BA had completely converted to BAB, as evidenced by the disappearance of the top layer. The pH of the solution was measured using pH paper to be approximately 8-9. A 50 μL sample was withdrawn from the BAB/D2O solution and added to 0.50 mL of the sodium acetate standard solution in a third NMR tube.
The 4.0 mL vial from which the last NMR sample was withdrawn was then heated at 80° C. for 1 h and stirred by a magnetic stirrer. Bubbles of CO2 were observed escaping from the solution and a top layer, hydrophobic amidine, appeared. After cooling the vial to room temperature, a 50 μL sample was withdrawn from each layer and combined with 0.50 mL of the sodium acetate standard in two NMR tubes: the top layer (BA) in a fourth tube; the bottom layer (aqueous) in a fifth tube.
The NMR spectra of all five samples are shown in FIG. 10 with the first to fifth tubes shown from top to bottom. […] In addition, using the ‘c’ and ‘d’ protons provided stronger signals, to improve accuracy. Based on the strength of the ‘c’ and ‘d’ signals, 11% of the BA remained in the aqueous phase as BAB after the experiment
Using dioxane as the internal standard gave the same results (11% BAB retention in the aqueous phase) as sodium acetate.
The same experiment was repeated except that the temperature of the heating of the 4.0 mL vial was increased from 80° C. to 90° C. A similar retention of BAB in the aqueous phase (12%) was observed.

[2] = Polarity study with solvatochromatic dye Nile Red (Example 3); conditions: water-saturated BA or aqueous solution of BAB
Method: The maximum wavelength of absorption, λmax, of a switchable hydrophilicity solvent, N,N,N′-tributylpentanamidine (BA), was analyzed in its hydrophobic and hydrophilic forms using the solvatochromatic dye, Nile Red. A 1 Dram vial was prepared containing 1 mL of distilled water to which 1 mL of BA was added. […] This ensured saturation of the BA phase with water. The top phase comprising the BA liquid was pipetted into a quartz cuvette (Semi-Micro Cells, Self Masking Black Walls Spectrosil® Quartz, Starna Cells, Atascadero, Calif., USA) and 1 mg of Nile Red was added, to provide a bright orange-magenta solution. The ultraviolet absorbance spectrum was acquired on an Agilent Technologies ultraviolet/visible spectrometer 50-60 Hz with UV-Visible Chemstation software. The λmax was 510 nm. Distilled water (1.0 mL) was then added to the quartz cuvette and carbon dioxide was slowly bubbled into the mixture for 1 hour to switch the BA to its ionic form, N,N,N′-tributylpentanamidinium bicarbonate (BAB), after which the homogenous mixture turned purple. The ultraviolet absorbance spectrum of the aqueous solution of the dye and ionic salt was then acquired as discussed in the previous paragraph. The λmax was 570 nm.

[3] = Regeneration of BA from aqueous BAB using air (Example 1C)
Method: Switching behavior was studied for an aqueous solution of BAB. A glass vial (4 mL) was prepared, containing distilled water (1.0 mL) and BA (1.0 mL) as a two-phase mixture. CO2 was bubbled through the vial for roughly 30 minutes, until the top layer had disappeared showing that a single-phase solution of BAB in water had been formed.
Air was then bubbled through the same glass vial with the single-phase solution for approximately 5 hours at room temperature to displace CO2 from the solution. The formation of a second layer (hydrophobic BA) was noted.

[4] = Water miscibility of amidines in neutral form and after CO2
Excerpt: This represents relatively hydrophilic character. The amidines A-D are unsatisfactory for use as a switchable hydrophilicity solvent because they are insufficiently hydrophobic in their amidine form. […] Since such amidines are not separable from water after switching from their hydrophilic to hydrophobic forms, they are unsuitable for use in the present invention.
Exposure of a 1:1 by volume mixture of two immiscible liquids, hydrophobic PA and water, to gaseous CO2, at 1 atmosphere, caused a conversion to a hydrophilic liquid comprising an aqueous solution of N,N,N′-tripropylbutyramidinium bicarbonate (PAB) (see FIG. 1 for the chemical scheme in which R^1-4 are propyl). NMR data for the PA/water system is presented in FIGS. 4 and 5 and IR data in FIG. 6. FIGS. 4A and 5A show ^1H and ^13C NMR data for PA. After switching, the detection of the N,N,N′-tripropylbutyramidinium bicarbonate salt was confirmed by ^1H and ^13C NMR as shown in FIGS. 4B and 5B.
Similarly, exposure of a 1:1 by volume mixture of two immiscible liquids, hydrophobic BA and water, to gaseous CO2, at 1 atmosphere, caused a conversion to a hydrophilic liquid comprising an aqueous solution of N,N,N′-tributylpentanamidinium bicarbonate (BAB) (see FIG. 1 for the chemical scheme in which R^1-4 are butyl). NMR data for the […] is presented in FIGS. 7 and 8 and IR data in FIG. 9. […] show ^1H and ^13C NMR data for BA. After switching, the detection of the N,N,N′-tributylpentanamidinium bicarbonate salt was confirmed by ^1H and ^13C NMR as shown in FIGS. 6B and 7B. The hydrophilic aqueous solution of BAB was converted back into hydrophobic BA and water by heating at 80° C.

[5] = Qualitative switchability assessment of BA (Example 1B)
Excerpt: The BA amidine's ability to act as a switchable hydrophilicity solvent for the separation of a selected substance is dependent on its ability to switch from the hydrophobic form to a hydrophilic form. This is achieved by adding water to provide an aqueous layer and decreasing the pH of the aqueous layer, namely by dissolving CO2 in the aqueous layer. When carbon dioxide dissolves in water, it forms carbonic acid with pKa1 of 6.4. The resultant dissociation is sufficient to protonate a hydrophobic amidine, causing it to become charged forming a hydrophilic amidinium bicarbonate (BAB). In this preliminary switching study, the amidine's ability to act as a base and its ability to switch hydrophilicity were studied.
Switching behavior was studied for BA over various periods of time. A glass vial (4 mL) was prepared, containing distilled water (1.0 mL) and BA amidine (0.5 mL).
CO2 was bubbled through the vial for roughly 30 minutes, until the top layer had disappeared showing that a hydrophilic solution of BAB in water had been formed.
A magnetic stirrer was placed in the vial. The vial was suspended in an 80° C. oil bath and stirred. The vial was intermittently removed from the bath and monitored for the presence of a second layer after 20, 50 and 75 minutes. The formation of a second layer (hydrophobic BA) was noted after 20 minutes in the oil bath.

For `CCCCN=C(CCCC)N(CCCC)CCCC` [BA, N,N,N′-tributylpentanamidine], the “BA remaining in the aqueous phase as BAB after heating” value ([1]; 80 °C, 1 h, sodium acetate internal standard) was 11%, the “BA recovered when amidinium bicarbonate solution is heated” value ([1]; from 1H NMR peak integrations) was 89% and the “maximum wavelength of absorption (λmax) of Nile Red” value [2] was 510 nm. The “time of CO2 bubbling until top layer disappeared” value ([3]; 1.0 mL water + 1.0 mL BA) was “roughly 30 minutes”, the “time of air bubbling after which second layer was noted” value ([3]; room temperature) was “approximately 5 hours” and the “miscibility with water after CO2 trigger (amidinium bicarbonate form)” value ([4]; CO2 and water) was “became miscible”. The “miscibility with water, neutral (unprotonated) amidine form” value ([4]; no CO2) was “immiscible with water”, the “time of CO2 bubbling until top layer disappeared” value ([5]; 1.0 mL water + 0.5 mL BA) was “roughly 30 minutes” and the “heating time to formation of second (hydrophobic) layer” value ([5]; 80 °C oil bath, stirred) was 20 min.
